Source: patent publication US7314864B1, “Humanin, a polypeptide suppressing neuronal death” (Keio University, priority 1999, dated 2008)
Entries after “also recorded” stand apart in the source; their conditions may differ. No end group written: not given here.

Tests used:
[1] = tested on: primary cultured cortical neurons treated with Aβ1-43; experiment: Aβ1-43-induced cell death of primary cultured cortical neurons, trypan blue exclusion assay; type: cell-based; conditions: for effect on Aβ1-43-induced cell death: 25 μM Aβ1-43, confirmed by LDH release and Calcein staining
Experimental: Primary culture of mouse cortical neurons was performed in poly-D-lysine-coated 24-well plates (Sumitomo Bakelite) in the absence of serum and in the presence of N2 supplement, as described in literature (Ecksioglu, Y. Z. et al. (1994) Brain Res. 644, 282-90). The purity of neurons prepared according to the method was >98%. The prepared neurons (1.25×10^5/well, 250 μl media/well) were preincubated in the absence or presence of 10 nM or 10 μM sHN polypeptides for 16 hours; and were treated with 25 μM Aβ1-43 in the absence or presence of sHN polypeptides at the same concentrations for 24 to 72 hours. Since primary cultured neurons are damaged even by temporary dryness during medium exchange, treatment of the cells by Aβ1-43 was performed as follows. First, half of the volume of the old medium (125 μl) was discarded. Then, 125 μl of pre-warmed fresh medium containing 50 μM Aβ1-43 and sHN with a concentration indicated above were added to the culture.
(§1) Trypan blue exclusion assay was performed as follows. Without prewashing, the cells were suspended with gentle pipetting into a serum-free media. 50 μl of 0.4% trypan blue solution (Sigma, Cat. #T-8154) were added (final concentration of 0.08%) to 200 μl cell suspension, and the suspension was mixed at room temperature. Within 3 minutes of the trypan blue solution addition, stained cells were counted. Cell mortality was determined [100-cell survival rate (%)] based on the stained cell count. LDH assay was performed using a kit (LDH-Cytotoxic Test; Wako Pure Chemical Industries, Cat. #299-50601) by sampling 6 μl of media in which neurons were cultured. Calcein staining was performed as described in literature (Bozyczko-Coyne, D. et al. (1993) Journal of Neuroscience Methods 50, 205-216). Specifically, 6 μM Calcein-AM (3′, 6′-Di-(O-acetyl)-2′-7′-bis[N,N-bis(carboxymethyl)aminomethyl]fluorescein, tetraacetoxymethyl ester; Dojindo, Cat. #349-07201) was added to the neurons; and 30 minutes or longer after Calcein-AM treatment, fluorescence (ex=490 nm, em=515 nm) was observed by fluorescence microscopy, and measured by a spectrometer. Specific fluorescence was calculated by subtracting basal fluorescence from total fluorescence. Basal fluorescence was assigned to be the value calculated from linear trypan blue positivity-fluorescence intensity relationship, corresponding to 100% trypan blue positivity.

[2] = tested on: primary cultured neurons treated with etoposide; experiment: Etoposide toxicity on primary cultured neurons; type: cell-based, mouse; conditions: 20 μM etoposide; 10 μM polypeptide
Experimental: 25 μM Aβ1-43 was added to primary cultured cortical neurons in the presence (at indicated concentrations) or absence of sHN, sHNG, or sHNA. Addition of HN polypeptides was performed similarly to that described in FIG. 14. 72 hours after the initiation of Aβ treatment, cell death was measured by trypan blue exclusion assay. Primary cultured neurons treated similarly for 72 hours with 20 μM etoposide in the presence or absence of 10 μM sHN or HN derivatives were used as the positive controls in these experiments. Similar experiments were performed at least three times, and reproducible results were obtained. Mean ±S.D. values of three independent experiments are indicated in the graphs. […]
(§2) Trypan blue exclusion assay was performed as follows. […] Within 3 minutes of the trypan blue solution addition, stained cells were counted. Cell mortality was determined [100-cell survival rate (%)] based on the stained cell count. […] Specifically, 6 μM Calcein-AM (3′, 6′-Di-(O-acetyl)-2′-7′-bis[N,N-bis(carboxymethyl)aminomethyl]fluorescein, tetraacetoxymethyl ester; Dojindo, Cat. #349-07201) was added to the neurons; and 30 minutes or longer after Calcein-AM treatment, fluorescence (ex=490 nm, em=515 nm) was observed by fluorescence microscopy, and measured by a spectrometer. Specific fluorescence was calculated by subtracting basal fluorescence from total fluorescence. […]

[3] = tested on: primary cultured cortical neurons treated with Aβ1-43; experiment: Aβ1-43-induced cell damage of primary cultured cortical neurons, LDH release; type: cell-based, mouse; conditions: 25 μM Aβ1-43; 10 μM polypeptide
Experimental: Primary culture of mouse cortical neurons was performed in poly-D-lysine-coated 24-well plates (Sumitomo Bakelite) in the absence of serum and in the presence of N2 supplement, as described in literature (Ecksioglu, Y. Z. et al. (1994) Brain Res. 644, 282-90). The purity of neurons prepared according to the method was >98%. The prepared neurons (1.25×10^5/well, 250 μl media/well) were preincubated in the absence or presence of 10 nM or 10 μM sHN polypeptides for 16 hours; and were treated with 25 μM Aβ1-43 in the absence or presence of sHN polypeptides at the same concentrations for 24 to 72 hours. […]
as §2

[4] = tested on: F11 cells transfected with V642I APP cDNA; experiment: V642I APP-induced F11 cell death, trypan blue exclusion assay; type: cell-based; conditions: for cell mortality (%): V642I APP cDNA, treated with 10 μM sHN polypeptides, 72 hours, mean ±S.D.
Experimental: (§3) F11 cells (Platika, D. et al. (1985) Proc. Natl. Acad. Sci. U.S.A. 82, 3499-3503; Yamatsuji, T. et al. (1996) Science 272, 1349-1352) were cultured in HamF-12 media containing 18% fetal bovine serum (FBS) and antibiotics. 7×10^4/well of F11 cells were seeded into a 6-well plate; cultured in HamF-12 containing 18% FBS for 12 to 16 hours; transfected 3 hours with plasmids encoding FAD genes and plasmids encoding HN (pHN, and such) by lipofection in the absence of serum (1 μg of FAD cDNA expression plasmid, 1 μg of HN cDNA expression plasmid, 4 μl of LipofectAMINE, 8 μl of Plus reagent); and then, were cultured for 2 hours in HamF-12 media containing 18% FBS. Then, culture media were exchanged with HamF-12 media containing 10% FBS; and the cells were cultured for additional 67 hours. 72 hours after transfection, cell death was measured by trypan blue exclusion assay. Experiments using synthetic HN polypeptides were conducted as follows: F11 cells (at 7×10^4/well in a 6-well plate) were transfected 3 hours with FAD genes in the absence of serum, as mentioned above; after cultivation for 2 hours in HamF-12 media containing 18% FBS, the cells were cultured for 67 hours in HamF-12 media containing 10% FBS with various concentrations of HN polypeptides; and cell death was measured by trypan blue exclusion assay. ALS-associated mutant cDNAs of SOD1 were also similarly transfected, and examined for their neurotoxicity.
as §1

[5] = tested on: F11 cells transfected with FAD genes (V642I APP, NL-APP, M146L PS-1, N141I PS-2); experiment: FAD gene-induced F11 cell death, trypan blue exclusion assay; type: cell-based, rat/mouse hybrid
Experimental: as §3, §1

[6] = tested on: F11/EcR cells transfected with ecdysone-inducible Q79 plasmid; experiment: Polyglutamine Q79-induced F11/EcR cell death (ecdysone-inducible), trypan blue exclusion assay; type: cell-based; conditions: 1 μM polypeptide, 72 hours
Experimental: F11/EcR cell experiment using ecdysone was conducted as follows: F11/EcR cells were seeded at 7×10^4/well into a 6-well plate; cultured for 12 to 16 hours in HamF-12 media containing 18% FBS; and were similarly transfected in the absence of serum for 3 hours with 1 μg of ecdysone-inducible plasmid alone, or with 1 μg of HN-encoding plasmid, as mentioned above. After culturing for 12 to 16 hours in HamF-12 media containing 18% FBS, the cells were cultured for 2 hours in HamF-12 media containing 10% FBS, then ecdysone (Ponasterone) was added to the media (final concentration of 40 μM). Cell death was measured 72 hours after ecdysone treatment. Experiments using synthetic HN polypeptides were conducted as follows: cells were similarly transfected for 3 hours with FAD genes in the absence of serum; cultured for 12 to 16 hours in HamF-12 media containing 18% FBS; cultured for 2 hours in HamF-12 media containing 10% FBS and various concentrations of HN polypeptide; and then, 40 μM Ponasterone was added to the media. Cell death was measured by trypan blue exclusion assay after 72 hours from the ecdysone treatment. HD/SCA-associated Q79 cDNAs were also similarly transfected, and the neurotoxicity was tested.
Trypan blue exclusion assay was performed as follows. […] Within 3 minutes of the trypan blue solution addition, stained cells were counted. Cell mortality was determined [100-cell survival rate (%)] based on the stained cell count. […] Specifically, 6 μM Calcein-AM (3′, 6′-Di-(O-acetyl)-2′-7′-bis[N,N-bis(carboxymethyl)aminomethyl]fluorescein, tetraacetoxymethyl ester; Dojindo, Cat. #349-07201) was added to the neurons; and 30 minutes or longer after Calcein-AM treatment, fluorescence (ex=490 nm, em=515 nm) was observed by fluorescence microscopy, and measured by a spectrometer. Specific fluorescence was calculated by subtracting basal fluorescence from total fluorescence. Basal fluorescence was assigned to be the value calculated from linear trypan blue positivity-fluorescence intensity relationship, corresponding to 100% trypan blue positivity.

[7] = tested on: F11/EcR cells transfected with ecdysone-inducible FAD gene plasmid; experiment: Ecdysone-induced FAD gene expression F11/EcR cell death, trypan blue exclusion assay; type: cell-based; conditions: 1 μM; NL-APP, V642I APP, M146L PS-1, N141I PS-2; ecdysone 72 hours
Experimental: F11/EcR cell experiment using ecdysone was conducted as follows: F11/EcR cells were seeded at 7×10^4/well into a 6-well plate; cultured for 12 to 16 hours in HamF-12 media containing 18% FBS; and were similarly transfected in the absence of serum for 3 hours with 1 μg of ecdysone-inducible plasmid alone, or with 1 μg of HN-encoding plasmid, as mentioned above. After culturing for 12 to 16 hours in HamF-12 media containing 18% FBS, the cells were cultured for 2 hours in HamF-12 media containing 10% FBS, then ecdysone (Ponasterone) was added to the media (final concentration of 40 μM). Cell death was measured 72 hours after ecdysone treatment. […] Cell death was measured by trypan blue exclusion assay after 72 hours from the ecdysone treatment. […]
as §2, with “spectrometer.” for “spectrometer. Specific fluorescence was calculated by subtracting basal fluorescence from total fluorescence.”

[8] = tested on: F11 cells transfected with SOD1 mutants (A4T, G85R, G93A); experiment: ALS-associated SOD1 mutant-induced F11 cell death, trypan blue exclusion assay; type: cell-based, rat/mouse hybrid; conditions: 100 μM polypeptide
Experimental: as §3, §2

## CC[C@H](C)[C@H](NC(=O)[C@H](CCC(=O)O)NC(=O)[C@H](CO)NC(=O)[C@@H](NC(=O)[C@H](CC(C)C)NC(=O)[C@H](CC(C)C)NC(=O)[C@H](CC(C)C)NC(=O)[C@H](CC(C)C)NC(=O)[C@H](CS)NC(=O)[C@H](CO)NC(=O)[C@H](Cc1ccccc1)NC(=O)CNC(=O)[C@H](CCCNC(=N)N)NC(=O)[C@@H]1CCCN1C(=O)[C@H](C)NC(=O)[C@@H](N)CCSC)[C@@H](C)O)C(=O)N[C@@H](CC(=O)O)C(=O)N[C@@H](CC(C)C)C(=O)N1CCC[C@H]1C(=O)N[C@H](C(=O)N[C@@H](CCCCN)C(=O)N[C@@H](CCCNC(=N)N)C(=O)N[C@@H](CCCNC(=N)N)C(=O)N[C@@H](C)C(=O)O)C(C)C [sHN]
[1]; 10 nM polypeptide
  effect on Aβ1-43-induced cell death: did not show any effect
[1]; 10 μM polypeptide
  effect on Aβ1-43-induced cell death: completely restored to a level observed under basal conditions
[2]
  effect on toxic effect of etoposide: could not prevent
[3]
  effect on cell damage (LDH released) by Aβ1-43: completely restored to a level observed under basal conditions
[4]; 10 nM polypeptide
  suppression of V642I APP-induced cell death: extremely weak suppression
[4]; 10 μM polypeptide
  suppression of V642I APP-induced cell death: dramatically suppressed
[4]; 72 h
  IC50: ~100 nM
[4]
  cell mortality (%): 14.4 ± 1.2 %
[5]; NL-APP, M146L PS-1, N141I PS-2
  concentration blocking neuronal death induced by the FAD genes: 1 µM
[5]; chemically synthesized polypeptide
  extracellular concentration at which neuronal death is suppressed: ≥ 10 nM
[5]; four types of AD genes, listed as Humanin
  concentration of maximal (saturation) suppression of neuronal death: about 10 μM
[6]
  effect on Q79-induced cell death, synthetic polypeptide: Extensive cell death
[7]
  effect on cell death by ecdysone-induced FAD genes, synthetic polypeptide: significant suppressive effect
[8]
  effect on SOD1 mutant-induced cell death, synthetic polypeptide: couldn't be suppressed

## AGA-HNG: HNG (S14G HN) mutated at two positions, R4A/F6A (MAPAGASCLLLLTGEIDLPVKRRA; artificially synthesized sequence (AGA-HN))
[1]; 25 μM Aβ1-43, 72 hours
  concentration giving complete rescue of cell death by Aβ: 0.3 nM
[5]
  concentration showing significant or sufficient neuroprotective action: about 1 nM
[5]; all four types of FAD genes
  concentration giving complete antagonism/rescue of neuronal death: 0.1 nM
[5]; all types of cell death (FAD genes, Aβ)
  neuroprotective activity relative to HNG: higher rescue activity compared to HNG; also recorded: several folds higher

## ARGFSCLLLLTGEIDLP [SEQ ID NO: 25, ARGFSCLLLLTGEIDLP]
[1]; 25 μM Aβ1-43, 72 hours, 10 nM polypeptide, mean ±S.D.
  cell mortality: 75.3±4.4%

## HN-17: 17 amino acids from Pro3 to Pro19 of Humanin (PRGFSCLLLLTSEIDLP; artificially synthesized sequence (deltaN2 deltaC5-Humanin; HN-17 ))
[5]; 10 μM polypeptide, four FAD genes
  antagonizing activity on FAD gene-induced cell death: sufficient antagonizing activity
[5]; M146L PS-1
  activity to suppress cell death compared to the original HN: slightly lower activity
[5]; any of the four FAD genes, dose-response
  concentration showing sufficient protective action: low μM

## MAPRGFSALLLLTSEIDLPVKRRA [sHNA]
[1]; 10 μM polypeptide
  effect on Aβ1-43-induced cell death: did not show any effect
[4]
  cell mortality (%): 52.5 ± 3.0%
[4]; concentrations up to 100 μM
  suppression of V642I APP-induced cell death: did not significantly suppress
[5]; NL-APP, M146L PS-1, N141I PS-2, up to 100 μM
  antagonism of cell death by FAD genes: did not antagonize
[6]
  effect on Q79-induced cell death, synthetic polypeptide: Extensive cell death
[8]
  effect on SOD1 mutant-induced cell death, synthetic polypeptide: couldn't be suppressed
